# Reference: PMC2409716 (British Journal of Cancer, 2004)
# Like-named read-outs stand apart in the source and are kept apart here.
# Key:
# [1] = tested on: patients with a solid malignancy; experiment: Phase I toxicity evaluation (NCI common toxicity criteria v2.0, DLT/MTD) of irinotecan with oral R115777; format: in vivo, human
# Description: In the continuous regimen, R115777 was administered on days 3–21 of cycle 1, and then continuously thereafter, starting again on day 1 of subsequent cycles. In the intermittent regimen, R115777 was administered on days 3–14 of the first cycle, and then starting again on day 1 of subsequent cycles, but without administration on days 15–21.
# Three patients were accrued at the starting dose level, and in the absence of DLT, another three patients were entered at the next dose level. For safety reasons, the next dose level was not opened until at least three patients were assessable for toxicity in the first cycle. In case only one patient developed DLT (see below), the dose level was expanded with additional patients to a total of six. […] The MTD (recommended dose) was defined as one dose level below the level at which ⩾2 of six patients experienced DLT.
# Toxicity was assessed by the National Cancer Institute Version 2.0 common toxicity criteria on a scale graded 0–4 (Available: http://ctep.cancer.gov/reporti ng/ctc.html (accessed: February 27, 2004)). […] Tumours were assessed radiologically before patients were enrolled on the study, and after every even-numbered cycle. […]
# ABCB1 (P-glycoprotein) = tested on: ABCB1 (P-glycoprotein); set-up: method as in earlier work; settings: ref unpublished data, Johnson & Johnson Pharmaceutical Research and Development, cited from earlier work
# [2] = Noncompartmental plasma pharmacokinetics of R115777 with/without irinotecan; settings: for AUC12 h Ratio (R115777 with irinotecan to R115777 alone) / Cmax Ratio (R115777 with irinotecan to R115777 alone): least-squares means, 90% confidence limits in parentheses; for tmax: median
# CYP3A4 = tested on: CYP3A4; set-up: method as in Bohets, 1998; settings: human hepatic microsomal preparations; at in vitro concentrations five-fold higher than the peak concentrations observed in the present study; ref Bohets, 1998; cited from earlier work
# clinical [3] = settings: human, plasma, po
# UGT1A = settings: 2002, cited from earlier work
# [4] = Noncompartmental plasma pharmacokinetics of irinotecan and SN-38 with/without R115777
# [5] = human, in vivo
# clinical [6] = settings: human
# [7] = set-up: method as in earlier work; settings: ref unpublished data, Johnson & Johnson Pharmaceutical Research and Development, cited from earlier work
# [8] = human, in vivo, 350 mg
# [9] = Intermittent, oral R115777 200–400 mg b.i.d., dose-normalised to 200 mg, (+) Irinotecan 350 mg m^−2, mean±s.d., 12–13 patients
# [10] = continuous, relative to monotherapy, not significant
# [11] = intermittent regimens, not statistically significant
# [12] = Continuous, (+) R115777 200 mg b.i.d. (cycle 2), irinotecan 200–350 mg m^−2, dose-adjusted to 350 mg m^−2, mean±s.d., 11–13 patients
# [13] = preclinical studies, ref Gagne et al
structure (smiles),measurement,setting,value
"Cn1cncc1[C@@](N)(c1ccc(Cl)cc1)c1ccc2c(c1)c(-c1cccc(Cl)c1)cc(=O)n2C [R115777, (R)-6-[amino(4-chlorophenyl)(1-methyl-1H-imidazol-5-yl)methyl]-4-(3-chloro-phenyl)-1-methyl-2(1H)-quinolinone]",MTD (R115777 dose in the combination),"[1]; oral, 14 consecutive days in 21-day cycles, with irinotecan 350 mg m^−2 every 3 weeks",300 mg b.i.d.
same,inhibition of P-glycoprotein,ABCB1 (P-glycoprotein); at physiologically relevant concentrations,does not significantly inhibit
same,ABCB1 substrate,ABCB1 (P-glycoprotein); preliminary data,not likely to be a substrate
same,AUC12 h Ratio (R115777 with irinotecan to R115777 alone),[2]; Continuous,101 (68–149) percent
same,Cmax Ratio (R115777 with irinotecan to R115777 alone),[2]; Continuous,93 (63–137) percent
same,Cmax,"[2]; Continuous, oral R115777 200 mg b.i.d., (+) Irinotecan 200–350 mg m^−2, mean±s.d., 11–13 patients",735 ± 377 ng/mL
same,AUC12 h Ratio (R115777 with irinotecan to R115777 alone),[2]; Intermittent,109 (93–127) percent
same,Cmax Ratio (R115777 with irinotecan to R115777 alone),[2]; Intermittent,106 (89–126) percent
same,AUC12 h,[2]; [9],3170 ± 1550 ng·h/mL
same,Cmax,[2]; [9],663 ± 296 ng/mL
same,tmax,"[2]; Intermittent, oral R115777 200–400 mg b.i.d., (+) Irinotecan 350 mg m^−2, 12–13 patients",2.0 h
same,tmax,"[2]; Intermittent, oral R115777 200–400 mg b.i.d., (−) Irinotecan, 12–13 patients",2.0 h
same,time at which peak plasma concentrations were observed,"[2]; after oral administration, with or without co-administration of irinotecan",2 h
same,decrease in the peak concentration in the combination therapy,[2]; [10],7.0%
same,increase in AUC in the combination therapy,[2]; [10],1.0%
same,increase in AUC following administration of irinotecan,[2]; [11],9.0%
same,increase in peak concentration following administration of irinotecan,[2]; [11],6.0%
same,effect on CYP3A4 activity,CYP3A4,inhibit CYP3A4 activity
same,tmax,clinical [3],2.1 h
same,AUC(0-t),clinical [3]; 200 mg,3240 ± 1590 ng·h/mL
same,Cmax,clinical [3]; 200 mg,840 ± 551 ng/mL
same,tmax,clinical [3]; 200 mg,2 h
same,isozyme with a minor role in N-glucuronidation,UGT1A; ref Mannens et al,UGT1A3
same,prominent isozyme producing the N-glucuronide,UGT1A; ref Mannens et al,UGT1A4
"CCc1c2c(nc3ccc(O)cc13)-c1cc3c(c(=O)n1C2)COC(=O)[C@]3(O)CC [SN-38, 7-ethyl-10-hydroxycamptothecin]",AUC48 h,[4]; [12],569 ± 328 ng·h/mL
same,Cmax,[4]; [12],70.2 ± 49.6 ng/mL
same,Cmax,"[4]; Continuous, (−) R115777 (cycle 1), irinotecan 200–350 mg m^−2, dose-adjusted to 350 mg m^−2, mean±s.d., 11–13 patients",63.4 ± 37.4 ng/mL
same,AUC48 h,"[4]; Intermittent, (+) R115777 200–400 mg b.i.d. (cycle 2), irinotecan 350 mg m^−2, mean±s.d., 13 patients",375 ± 146 ng·h/mL
same,AUCcar Mean diff,[5],-26.7 ± 10.1 ng·h/mL
same,AUClac Mean diff,[5],-59.7 ± 34.7 ng·h/mL
same,"REClac (relative extent of conversion, AUCSN-38/AUCirinotecan × 100%, lactone)",[5],6.91±3.05%
same,REClac Mean diff,[5],−0.57±0.50%
same,"RECtotal (relative extent of conversion, AUCSN-38/AUCirinotecan × 100%, total)",[5],2.72±1.02%
same,RECtotal Mean diff,[5],−0.09±0.13%
same,half-life,clinical [6]; in vivo,13.4 ± 4.44 h
same,half-life,"clinical [6]; in vivo, 350 mg",18.1 ± 13.1 h
same,Cmax,"clinical [6]; plasma, intravenous",41.5 ± 20.1 ng/mL
same,AUC(0-t),"clinical [6]; plasma, intravenous, 350 mg",326 ± 134 ng·h/mL
same,isozymes with a minor role in glucuronidation,UGT1A; [13],"UGT1A6, UGT1A8, and UGT1A10"
same,major isozymes involved in glucuronidation,UGT1A; [13],"UGT1A1, UGT1A7, and UGT1A9"
CC(=O)O[C@@]12CO[C@@H]1C[C@H](O)[C@@]1(C)C(=O)[C@H](O)C3=C(C)[C@@H](OC(=O)[C@H](O)[C@@H](NC(=O)OC(C)(C)C)c4ccccc4)C[C@@](O)([C@@H](OC(=O)c4ccccc4)[C@H]21)C3(C)C [docetaxel],plasma AUC of docetaxel,"[7]; continuous R115777 (200 mg b.i.d.), subset of subjects",relatively unchanged
same,effect of R115777 on the systemic exposure to docetaxel,[7]; single-dose administration of R115777 (200 or 300 mg),little effect
CCc1c2c(nc3ccc(OC(=O)N4CCC(N5CCCCC5)CC4)cc13)-c1cc3c(c(=O)n1C2)COC(=O)[C@]3(O)CC [irinotecan],MTD (irinotecan dose in the combination),"[1]; given every 3 weeks, with R115777 300 mg b.i.d. for 14 consecutive days",350 mg m^−2
same,AUCcar Mean diff,[5],-1950 ± 641 ng·h/mL
same,AUClac Mean diff,[5],-269 ± 101 ng·h/mL
same,Cmax,clinical [6]; in vivo,3620 ± 632 ng/mL
same,AUC48 h,[8],20 270±6020 ng h ml^−1
